Laboratory results as given in patent publication US10294202B2, “Pyrrolidinones as herbicides” (FMC Corporation, priority 2013, dated 2019).

What was measured:
[1] = test system: surinam grass; assay: Test C pre-/postemergence herbicide test; assay type: in vivo, Brachiaria decumbens; details: Preemergence
Excerpt: (§1) Seeds of plant species selected from blackgrass (Alopecurus myosuroides), ryegrass, Italian (Italian ryegrass, Lolium multiflorum), wheat (winter wheat, Triticum aestivum), galium (catchweed bedstraw, Galium aparine), corn (Zea mays), crabgrass, large (large crabgrass, Digitaria sanguinalis), foxtail, giant (giant foxtail, Setaria faberii), johnsongrass (Sorghum halepense), lambsquarters (Chenopodium album), morningglory (Ipomoea coccinea), nutsedge, yellow (yellow nutsedge, Cyperus esculentus), pigweed (Amaranthus retroflexus), ragweed (common ragweed, Ambrosia elatior), soybean (Glycine max), barnyardgrass (Echinochloa crus-galli), oilseed rape (Brassica napus), waterhemp (common waterhemp, Amaranthus rudis), kochia (Kochia scoparia), oat, wild (wild oat, Avena fatua), surinam grass (Brachiaria decumbens), foxtail, green (green foxtail, Setaria viridis), goosegrass (Eleusine indica), bromegrass, downy (downy bromegrass, Bromus tectorum), nightshade (eastern black nightshade, Solanum ptycanthum), cocklebur (common cocklebur, Xanthium strumarium), cupgrass, woolly (woolly cupgrass, Eriochloa villosa), bermudagrass (Cynodon dactylon), sunflower, (common oilseed sunflower, Helianthus annuus), Russian thistle (Salsola kali) and velvetleaf (Abutilon theophrasti) were planted into a blend of loam soil and sand and treated preemergence with test chemicals formulated in a non-phytotoxic solvent mixture which included a surfactant. At the same time, plants selected from these crop and weed species and also barley (winter barley, Hordeum vulgare), […]), chickweed (common chickweed, Stellaria media), deadnettle (henbit deadnettle, Lamium amplexicaule), and canarygrass (littleseed canarygrass, Phalaris minor) were planted in pots containing Redi-Earth® planting medium (Scotts Company, 14111 Scottslawn Road, Marysville, Ohio 43041) comprising spaghnum peat moss, vermiculite, wetting agent and starter nutrients and treated with postemergence applications of test chemicals formulated in the same manner. Plants ranged in height from 2 to 18 cm (1- to 4-leaf stage) for postemergence treatments. Treated plants and controls were maintained in a greenhouse for 13 to 15 days, after which time all species were compared to controls and visually evaluated. Plant response ratings, summarized in Table C, are based on a scale of 0 to 100 where 0 is no effect and 100 is complete control. A dash (-) response means no test result.

[2] = test system: foxtail, green; assay: Test C pre-/postemergence herbicide test; assay type: in vivo, Setaria viridis; details: Preemergence; for Foxtail, Green plant response rating: 31 g ai/ha
Excerpt: as §1

[3] = test system: goosegrass; assay: Test C pre-/postemergence herbicide test; assay type: in vivo, Eleusine indica; details: Preemergence; for Goosegrass plant response rating: 31 g ai/ha
Excerpt: as §1

[4] = test system: bromegrass, downy; assay: Test C pre-/postemergence herbicide test; assay type: in vivo, Bromus tectorum; details: Preemergence; for Bromegrass, Downy plant response rating: 31 g ai/ha
Excerpt: as §1

[5] = test system: nightshade; assay: Test C pre-/postemergence herbicide test; assay type: in vivo, Solanum ptycanthum; details: Preemergence
Excerpt: as §1

[6] = test system: cocklebur; assay: Test C pre-/postemergence herbicide test; assay type: in vivo, Xanthium strumarium; details: Preemergence; for Cocklebur plant response rating: 31 g ai/ha
Excerpt: as §1

[7] = test system: cupgrass, woolly; assay: Test C pre-/postemergence herbicide test; assay type: in vivo, Eriochloa villosa; details: Preemergence; for Cupgrass, Woolly plant response rating: 31 g ai/ha
Excerpt: as §1

[8] = test system: bermudagrass; assay: Test C pre-/postemergence herbicide test; assay type: in vivo, Cynodon dactylon; details: Preemergence; for Bermudagrass plant response rating: 31 g ai/ha
Excerpt: as §1

[9] = test system: sunflower; assay: Test C pre-/postemergence herbicide test; assay type: in vivo, Helianthus annuus; details: Preemergence
Excerpt: as §1

[10] = test system: barley, spring; assay: Test D pre-/postemergence herbicide test; assay type: in vivo, Hordeum vulgare; details: for Plant response rating, Barley, Spring: scale 0 to 100 (0 no effect, 100 complete control); for Plant response rating: Barley, Spring, scale 0 to 100
Excerpt: (§2) Seeds of plant species selected from bluegrass (annual bluegrass, Poa annua), blackgrass (Alopecurus myosuroides), canarygrass (littleseed canarygrass, Phalaris minor), chickweed (common chickweed, Stellaria media), galium (catchweed bedstraw, Galium aparine), bromegrass, downy (downy bromegrass, Bromus tectorum), field poppy (Papaver rhoeas), field violet (Viola arvensis), foxtail, green (green foxtail, Setaria viridis), deadnettle (henbit deadnettle, Lamium amplexicaule), ryegrass, Italian (Italian ryegrass, Lolium multiflorum), kochia (Kochia scoparia), lambsquarters (Chenopodium album), oilseed rape (Brassica napus), pigweed (Amaranthus retroflexus), chamomile (scentless chamomile, Matricaria inodora), Russian thistle (Salsola kali), speedwell (bird's-eye speedwell, Veronica persica), barley, spring (spring barley, Hordeum vulgare), wheat, spring (spring wheat, Triticum aestivum), buckwheat, wild (wild buckwheat, Polygonum convolvulus), mustard, wild (wild mustard, Sinapis arvensis), oat, wild (wild oat, Avena fatua), radish, wild (wild radish, Raphanus raphanistrum), […]), barley, winter (winter barley, Hordeum vulgare), and wheat, winter (winter wheat, Triticum aestivum) were planted into a silt loam soil and treated preemergence with test chemicals formulated in a non-phytotoxic solvent mixture which included a surfactant. At the same time, these species were planted in pots containing Redi-Earth® planting medium (Scotts Company, 14111 Scottslawn Road, Marysville, Ohio 43041) comprising spaghnum peat moss, vermiculite, wetting agent and starter nutrients and treated with postemergence applications of the test chemicals formulated in the same manner. Plants ranged in height from 2 to 18 cm (1- to 4-leaf stage). Treated plants and controls were maintained in a controlled growth environment for 7 to 21 days after which time all species were compared to controls and visually evaluated. Plant response ratings, summarized in Table D, are based on a scale of 0 to 100 where 0 is no effect and 100 is complete control. A dash (-) response means no test result.

[11] = test system: barley, winter; assay: Test D pre-/postemergence herbicide test; assay type: in vivo, Hordeum vulgare; details: for Plant response rating, Barley, Winter: scale 0 to 100 (0 no effect, 100 complete control); for Plant response rating: Barley, Winter, scale 0 to 100
Excerpt: as §2

[12] = 31 g ai/ha, scale 0 to 100, 0 is no effect and 100 is complete control
[13] = 125 g ai/ha, scale 0 to 100 (0 no effect, 100 complete control)
[14] = scale 0 to 100, 0 is no effect and 100 is complete control
[15] = 250 g ai/ha, scale 0 to 100 (0 no effect, 100 complete control)
[16] = scale 0 to 100 (0 no effect, 100 complete control)

Compound	Plant response rating, Surinam Grass ([1]; 62 g ai/ha, scale 0 to 100)	Plant response rating, Surinam Grass [1, 13]	Plant response rating, Foxtail, Green ([2]; 62 g ai/ha, scale 0 to 100)	Plant response rating, Foxtail, Green [2, 13]	Plant response rating, Foxtail, Green [2, 15]	Plant response rating, Goosegrass ([3]; 62 g ai/ha, scale 0 to 100)	Plant response rating, Goosegrass [3, 13]	Plant response rating, Bromegrass, Downy ([4]; 62 g ai/ha, scale 0 to 100)	Plant response rating, Bromegrass, Downy [4, 13]	Plant response rating, Bromegrass, Downy [4, 15]	Plant response rating, Nightshade ([5]; 62 g ai/ha, scale 0 to 100)	Plant response rating, Nightshade [5, 13]	Plant response rating, Cupgrass, Woolly ([7]; 62 g ai/ha, scale 0 to 100)	Plant response rating, Cupgrass, Woolly [7, 13]	Plant response rating, Cupgrass, Woolly [7, 15]	Plant response rating, Bermudagrass ([8]; 62 g ai/ha, scale 0 to 100)	Plant response rating, Bermudagrass [8, 13]	Plant response rating, Bermudagrass [8, 15]	Plant response rating Sunflower ([9]; 62 g ai/ha, scale 0 to 100)	other results
O=C1NCC(c2cccc(OC(F)(F)F)c2)C1C(=O)Nc1cccc(F)c1F (centres unmarked) [Compound 68]	75	75	90	95	95	75	80	0	0	0	50	55	75	85	90	50	85	85	0	Surinam Grass plant response rating [1, 12]: 40; Foxtail, Green plant response rating [2, 14]: 90; Goosegrass plant response rating [3, 14]: 55; Bromegrass, Downy plant response rating [4, 14]: 0; Nightshade plant response rating [5, 12]: 10; Cocklebur plant response rating [6, 14]: 15; Cupgrass, Woolly plant response rating [7, 14]: 75; Bermudagrass plant response rating [8, 14]: 30; Sunflower plant response rating [9, 12]: 0; Plant response rating Sunflower [9, 13]: 10
O=C1NCC(c2cccc(C(F)(F)F)c2)C1C(=O)Nc1cccc(F)c1F (centres unmarked) [Compound 241]																				Plant response rating, Barley, Spring ([10]; Preemergence, 31 g ai/ha): 0; Plant response rating, Barley, Spring ([10]; Preemergence, 62 g ai/ha): 10; Plant response rating, Barley, Spring ([10]; Preemergence, 125 g ai/ha): 20; Plant response rating ([10]; Preemergence, 250 g ai/ha): 35; Plant response rating, Barley, Winter ([11]; Preemergence, 31 g ai/ha): 10; Plant response rating, Barley, Winter ([11]; Preemergence, 62 g ai/ha): 10; Plant response rating, Barley, Winter ([11]; Preemergence, 125 g ai/ha): 30; Plant response rating ([11]; Preemergence, 250 g ai/ha): 65
O=C1NCC(c2cc(F)c(F)c(F)c2)C1C(=O)Nc1ccccc1C(F)(F)F (racemic) [Compound 33]	80	95	98	100	100	5	40	0	0	55	0	0	85	90	90	0	70	98	10	Foxtail, Green plant response rating [2, 16]: 95; Goosegrass plant response rating [3, 16]: 5; Bromegrass, Downy plant response rating [4, 16]: 0; Cocklebur plant response rating [6, 16]: 0; Plant response rating, Cocklebur [6, 13]: 10; Plant response rating, Cocklebur [6, 15]: 10; Cupgrass, Woolly plant response rating [7, 16]: 60; Bermudagrass plant response rating [8, 16]: 0; Plant response rating ([10]; Postemergence, 16 g ai/ha): 0; Plant response rating ([10]; Postemergence, 31 g ai/ha): 0; Plant response rating ([10]; Postemergence, 62 g ai/ha): 0; Plant response rating ([10]; Postemergence, 125 g ai/ha): 0; Plant response rating ([10]; Postemergence, 250 g ai/ha): 0; Plant response rating ([11]; Postemergence, 16 g ai/ha): 0; Plant response rating ([11]; Postemergence, 31 g ai/ha): 0; Plant response rating ([11]; Postemergence, 62 g ai/ha): 0; Plant response rating ([11]; Postemergence, 125 g ai/ha): 0; Plant response rating ([11]; Postemergence, 250 g ai/ha): 0
